Source: patent US20090325964A1, “Piperazine Metabotropic Glutamate Receptor 5 (MGLUR5) Negative Allosteric Modulators For Anxiety/Depression” (Wyeth, priority 2008, published 2009)
pIC50, pKi: −log10 of the molar value.

What was measured:
rat mGluR5 receptor = target: T1, rat mGluR5 receptor (Rattus norvegicus, UniProt P31424); test: [3H]-MPEP displacement binding assay, HEK-293 cell membranes expressing rat mGluR5; conditions: [3H]-MPEP displacement, rat mGluR5; read-out: Median Ki
T1 construct: expressed in transfected cells; host or cells: HEK-293
Summary of the method: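 Membranes from HEK-293 cells expressing rat mGluR5 (12-25 μg protein), incubated 60 min at room temperature with 4 nM [3H]-MPEP in 50 mM Tris pH 7.5, then filtered. Nonspecific binding defined with 10 μM MPEP.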

mGluR5 = mGluR5 (Rattus norvegicus, UniProt P31424); test: IC50 column under 'Biological Activity' (assay not identified in the shown text; not the binding Ki)
Chain of mGluR5 (P31424 21-1203): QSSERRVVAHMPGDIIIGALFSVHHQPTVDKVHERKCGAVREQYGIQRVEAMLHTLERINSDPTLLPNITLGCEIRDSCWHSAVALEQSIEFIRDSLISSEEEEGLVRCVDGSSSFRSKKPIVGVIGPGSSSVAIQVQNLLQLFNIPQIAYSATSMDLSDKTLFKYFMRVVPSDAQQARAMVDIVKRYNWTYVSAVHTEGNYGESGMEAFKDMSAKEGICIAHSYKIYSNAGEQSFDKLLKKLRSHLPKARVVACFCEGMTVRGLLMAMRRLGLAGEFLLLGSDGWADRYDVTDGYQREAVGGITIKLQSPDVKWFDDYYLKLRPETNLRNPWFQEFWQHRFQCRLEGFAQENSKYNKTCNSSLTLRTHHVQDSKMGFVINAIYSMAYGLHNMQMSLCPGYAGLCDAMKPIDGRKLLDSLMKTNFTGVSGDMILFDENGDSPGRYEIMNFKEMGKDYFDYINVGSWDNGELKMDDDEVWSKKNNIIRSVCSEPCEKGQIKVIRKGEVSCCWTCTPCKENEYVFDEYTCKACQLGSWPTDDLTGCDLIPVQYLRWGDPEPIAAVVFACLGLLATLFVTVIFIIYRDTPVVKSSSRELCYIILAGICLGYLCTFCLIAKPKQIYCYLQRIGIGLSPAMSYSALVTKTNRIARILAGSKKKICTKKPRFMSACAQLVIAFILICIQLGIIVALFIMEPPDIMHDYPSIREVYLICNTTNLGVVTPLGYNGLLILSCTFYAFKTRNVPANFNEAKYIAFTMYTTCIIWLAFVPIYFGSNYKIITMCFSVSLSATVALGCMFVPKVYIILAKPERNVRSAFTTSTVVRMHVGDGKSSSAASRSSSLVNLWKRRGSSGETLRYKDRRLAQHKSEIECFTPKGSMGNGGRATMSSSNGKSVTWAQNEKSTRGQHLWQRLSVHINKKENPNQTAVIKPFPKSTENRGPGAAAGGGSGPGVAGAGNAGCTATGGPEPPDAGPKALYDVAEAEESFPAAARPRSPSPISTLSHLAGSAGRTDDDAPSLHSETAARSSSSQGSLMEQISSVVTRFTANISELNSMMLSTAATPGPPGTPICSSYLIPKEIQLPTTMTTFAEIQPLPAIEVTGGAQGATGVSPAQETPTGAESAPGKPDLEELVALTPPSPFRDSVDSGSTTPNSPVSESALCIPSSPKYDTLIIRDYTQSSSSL

T1 sequence (P31424 21-1203): as above

Row | pKi (rat mGluR5 receptor) | pIC50 (mGluR5) | SMILES
1 | 7.15 | < 3.00 | COc1ccc(C(=O)N2CCN(S(=O)(=O)c3ccc4ccccc4c3)CC2)cc1C#Cc1ccccn1 [Compound 287, 1-[4-methoxy-3-(pyridin-2-ylethynyl)benzoyl]-4-(2-naphthylsulfonyl)piperazine]
2 | 7.85 | 6.68 | COc1ccc(C(=O)N2CCN(c3ccccc3)CC2)cc1C#Cc1ccccn1 [Compound 292, 1-[4-methoxy-3-(pyridin-2-ylethynyl)benzoyl]-4-phenylpiperazine]
3 | 7.24 | < 6.00 | COc1ccc(C(=O)N2CCN(c3ncc(C#N)c(N)n3)CC2)cc1C#Cc1ccccn1 [Compound 293, 4-Amino-2-(4-(4-methoxy-3-(pyridin-2-ylethynyl)benzoyl)piperazin-1-yl)pyrimidine-5-carbonitrile]
4 | 7.66 | < 6.00 | COc1ccc(C(=O)N2CCN(c3ccnc(SC)n3)CC2)cc1C#Cc1ccccn1 [Compound 296, 4-{4-[4-methoxy-3-(pyridin-2-ylethynyl)benzoyl]piperazin-1-yl}-2-(methylthio)pyrimidine]
5 | 7.48 | 6.99 | COc1ccc(C(=O)N2CCN(c3ncc(F)cn3)CC2)cc1C#Cc1ccccn1 [Compound 298, 5-fluoro-2-{4-[4-methoxy-3-(pyridin-2-ylethynyl)benzoyl]piperazin-1-yl}pyrimidine]
6 | 7.60 | 6.92 | COc1cnc(N2CCN(C(=O)c3ccc(OC)c(C#Cc4ccccn4)c3)CC2)nc1 [Compound 299, 5-methoxy-2-{4-[4-methoxy-3-(pyridin-2-ylethynyl)benzoyl]piperazin-1-yl}pyrimidine]
7 | 7.52 | 6.70 | COc1ccc(C(=O)N2CCN(c3ncc(F)c(N)n3)CC2)cc1C#Cc1ccccn1 [Compound 300, 5-fluoro-2-{4-[4-methoxy-3-(pyridin-2-ylethynyl)benzoyl]piperazin-1-yl}pyrimidin-4-amine]
8 | 7.08 | 6.69 | COc1ccc(N2CCN(C(=O)c3ccc(OC)c(C#Cc4ccccn4)c3)CC2)nn1 [Compound 301, 3-methoxy-6-{4[4-methoxy-3-(pyridin-2-ylethynyl)benzoyl]piperazin-1-yl}pyridazine]
9 | 7.41 | < 6.00 | COc1ccc(C(=O)N2CCN(c3nnc(Cl)cc3C)CC2)cc1C#Cc1ccccn1 [Compound 302, 6-chloro-3-{4-[4-methoxy-3-(pyridin-2-ylethynyl)benzoyl]piperazin-1-yl}-4-methylpyridazine]
10 | 7.51 | < 6.00 | COc1ccc(C(=O)N2CCN(c3ccc(Cl)nn3)CC2)cc1C#Cc1ccccn1 [Compound 303, 3-chloro-6-{4-[4-methoxy-3-(pyridin-2-ylethynyl)benzoyl]piperazin-1-yl}pyridazine]
11 | 7.28 | 6.39 | COc1ccc(C(=O)N2CCN(c3nccnc3Cl)CC2)cc1C#Cc1ccccn1 [Compound 304, 2-chloro-3-{4-[4-methoxy-3-(pyridin-2-ylethynyl)benzoyl]piperazin-1-yl}pyrazine]
12 | 7.14 | 6.45 | COc1ccc(C(=O)N2CCN(c3nnc(Cl)c4ccccc34)CC2)cc1C#Cc1ccccn1 [Compound 306, 1-chloro-4-{4-[4-methoxy-3-(pyridin-2-ylethynyl)benzoyl]piperazin-1-yl}phthalazine]
13 | 9.00 | 7.30 | Cc1ccc(C(=O)N2CCN(c3noc4ccccc34)CC2)cc1C#Cc1ccccn1 [Compound 307, 3-{4-[4-Methyl-3-(pyridin-2-ylethynyl)benzoyl]piperazin-1-yl}-1,2-benzisoxazole]
14 | 8.10 | 6.97 | COc1ccnc(N2CCN(C(=O)c3ccc(C)c(C#Cc4ccccn4)c3)CC2)n1 [Compound 308, 4-Methoxy-2-{4-[4-methyl-3-(pyridin-2-ylethynyl)benzoyl]piperazin-1-yl}pyrimidine]
15 | 7.47 | 6.71 | Cc1ccc(C(=O)N2CCN(c3ncccn3)CC2)cc1C#Cc1ccccn1 [Compound 309, 2-{4-[4-methyl-3-(pyridin-2-ylethynyl)benzoyl]piperazin-1-yl}pyrimidine]
16 | 7.64 | 7.21 | O=C(c1ccc(F)c(C#Cc2ccccn2)c1)N1CCN(c2ccccn2)CC1 [Compound 313, 1-[4-fluoro-3-(pyridin-2-ylethynyl)benzoyl]-4-pyridin-2-ylpiperazine]
17 | 8.70 | 7.62 | O=C(c1ccc(F)c(C#Cc2ccccn2)c1)N1CCN(c2noc3ccccc23)CC1 [Compound 316, 3-{4-[4-fluoro-3-(pyridin-2-ylethynyl)benzoyl]piperazin-1-yl}-1,2-benzisoxazole]
18 | 7.70 | 7.52 | COc1ccnc(N2CCN(C(=O)c3ccc(F)c(C#Cc4ccccn4)c3)CC2)n1 [Compound 317, 2-{4-[4-fluoro-3-(pyridin-2-ylethynyl)benzoyl]piperazin-1-yl}-4-methoxypyrimidine]
19 | 7.74 | 7.72 | CCOc1ccc(C(=O)N2CCN(c3ccccn3)CC2)cc1C#Cc1ccccn1 [Compound 318, 1-[4-ethoxy-3-(pyridin-2-ylethynyl)benzoyl]-4-pyridin-2-ylpiperazine]
20 | 7.70 | 7.51 | CCOc1ccc(C(=O)N2CCN(c3nccc(OC)n3)CC2)cc1C#Cc1ccccn1 [Compound 320, 2-{4-[4-ethoxy-3-(pyridin-2-ylethynyl)benzoyl]piperazin-1-yl}-4-methoxypyrimidine]
21 | 8.22 | 7.46 | CCOc1ccc(C(=O)N2CCN(c3noc4ccccc34)CC2)cc1C#Cc1ccccn1 [Compound 322, 3-{4-[4-ethoxy-3-(pyridin-2-ylethynyl)benzoyl]piperazin-1-yl}-1,2-benzisoxazole]
22 | 8.30 | 7.11 | O=C(c1ccc(OCC2CC2)c(C#Cc2ccccn2)c1)N1CCN(c2noc3ccccc23)CC1 [Compound 324, 3-(4-{[4-(cyclopropylmethoxy)-3-(pyridin-2-ylethynyl)phenyl]carbonyl}piperazin-1-yl)-1,2-benzisoxazole]
23 | 7.14 | 7.54 | COc1ccc(C(=O)N2CCN(c3ccc(Cl)cc3)C(=O)C2)cc1C#Cc1ccccn1 [Compound 326, 1-(4-Chlorophenyl)-4-{[4-methoxy-3-(pyridin-2-ylethynyl)phenyl]carbonyl}piperazin-2-one]
24 | 7.40 | 7.31 | COc1ccc(C(=O)N2CCN(c3cccc(Cl)c3)C(=O)C2)cc1C#Cc1ccccn1 [Compound 327, 1-(3-chlorophenyl)-4-{[4-methoxy-3-(pyridin-2-ylethynyl)phenyl]carbonyl}piperazin-2-one]
25 | 7.02 | 7.30 | COc1ccc(C(=O)N2CCN(c3ccccc3Cl)C(=O)C2)cc1C#Cc1ccccn1 [Compound 328, 1-(2-chlorophenyl)-4-{[4-methoxy-3-(pyridin-2-ylethynyl)phenyl]carbonyl}piperazin-2-one]
26 | 7.08 | 6.93 | COc1ccc(C(=O)N2CCN(c3ccccc3)C(=O)C2)cc1C#Cc1ccccn1 [Compound 329, 4-{[4-methoxy-3-(pyridin-2-ylethynyl)phenyl]carbonyl}-1-phenylpiperazin-2-one]
27 | 7.21 | 7.29 | COc1ccc(C(=O)N2CCN(Cc3ccccc3)C(=O)C2)cc1C#Cc1ccccn1 [Compound 331, 1-Benzyl-4-[4-methoxy-3-(pyridin-2-ylethynyl)benzoyl]piperazin-2-one]
